# In PubChem BioAssay AID493102 (Broad Institute, 2011):
# Tested on: SK-MEL-5 TRPM1-promoter luciferase reporter, 24 h
# Assay: reducers of TRPM1 reporter luminescence, concentration series – cell-based, SK-MEL-5, cherry-picked, set 4, MITF inhibitor project, dose response (AID 493102);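 further: actives lower the luciferase signal so the potency reflects inhibition of reporter expression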
row,SMILES,AC50 [µM]
1,Cc1cc(C(=O)CCl)c(C)n1CCc1ccc(F)cc1,4.25
2,Cc1ccc(NC2=C(Cl)C(=O)c3ccccc3C2=O)cc1,5.25
3,Cc1ccc2nc(NC(=O)CSCC(=O)OCC(=O)c3ccccc3)sc2c1,5.78
4,CN(C)c1ccc(/C=C(\C#N)c2ccccn2)cc1,6.32
5,CC(C)(C)c1ccc(C(=O)Nc2sc3c(c2C(=O)O)CCC3)cc1,2.09
6,COc1ccc(-c2cc(-c3ccccc3)[n+](C)c(-c3ccccc3)c2)cc1,3.2
7,CC[n+]1c(/C=C/N(C)c2ccccc2)sc2ccc(Cl)cc21,9.07
8,OCCNc1c2ccccc2nc2ccccc12,7.28
9,O=C(O)c1cccc(N/N=C/c2cccs2)c1,1.51
10,Cc1ccc(C(=O)Nc2cnc3ccccc3c2)cc1,1.15
11,CC(C)(C)c1ccc(C(=O)N2CCCCCC2=O)cc1,1.12
12,Cc1c(CCOC(=O)c2ccc(Cl)cc2Cl)sc[n+]1CC(=O)c1ccc(Br)cc1,19.8
13,CCOc1ccc(-c2ccc(SC)nn2)cc1,5.17
14,Cc1ccc(S(=O)(=O)N2CCCCC2)cc1NC(=O)Cn1ncc(Cl)c(Cl)c1=O,6.21
15,CC(C)N1C/C(=C/c2cccnc2)C(=O)/C(=C/c2cccnc2)C1,14.2
16,CC(C)C(CCNC1CCN(C)CC1)c1ccc(Cl)cc1 (configuration not stated),11.9
17,Cc1ccc(OCC(=O)N/N=C/c2ccc([N+](=O)[O-])o2)cc1,8.9
18,CC(C)=CCc1c(O)ccc2c1OC(c1ccc(O)c(O)c1)CC2=O (configuration not stated),11.7
19,O=C(NC1CCCC(C(F)(F)F)C1)c1ccc([N+](=O)[O-])o1 (configuration not stated),11.2

row,SMILES,AC50 [µM]
1,O=C1Nc2ccc(Br)cc2/C1=C/C(=O)c1ccc2c(c1)OCO2,25.5
2,CC(=O)SC(C[N+](=O)[O-])c1cn(C(C)=O)c2ccccc12 (configuration not stated),3.54
3,Cc1ccc(-n2[nH]c(=O)c(-c3ccccn3)c2C)cc1,3.23
4,C#CCCc1ccccc1/C=[N+](/C)[O-],9.4
5,COc1cccc(/C=N/Nc2ccc(C(=O)O)cc2)c1O,0.333
6,CCCCCCn1c(=O)c(C(=O)Nc2cnccn2)c(O)c2ccccc21,3.68
7,CC(C)C(=O)NC(c1ccco1)c1ccc2cccnc2c1O (configuration not stated),8.18
8,O=C(NCC1CCCCC1)C1(CC2CC(c3cccc(Br)c3)=NO2)CCNCC1 (configuration not stated),18.1
9,N=c1n(CC(=O)c2ccc(Br)cc2)c2ccccc2n1Cc1ccccc1,6.41
10,COc1cc2c(c(OC)c1OC)-c1ccc(N(C)CC(OC)OC)c(=O)cc1[C@@H](NC(C)=O)CC2,2.04
11,O=C1C=CC(=C(c2ccc(O)cc2)c2ccc(O)cc2)C=C1,9.92
12,CC(=O)NC1=C(N(C)C2CCS(=O)(=O)C2)C(=O)c2ccccc2C1=O (configuration not stated),21.2
13,Cc1ccc(NC(=O)Cn2ncc(Cl)c(Cl)c2=O)cc1S(=O)(=O)N1CCCCC1,13.7
14,Cc1ccc(NC(=O)c2cc(N3C(=O)C=CC3=O)ccc2N2CCOCC2)cc1,11.6
15,CC(=O)Nc1nc(C)c(-c2csc(Nc3cccc(C(C)=O)c3)n2)s1,8.38
16,CC1=NC(=O)C(N=Nc2cccc(C(=O)O)c2)N1c1ccccc1 (configuration not stated),8.62
17,O=C(/C=C\Nc1ccc2c(c1)OCO2)c1ccccn1,2.08
18,CC1CCN(CC(CS(=O)(=O)c2ccc([N+](=O)[O-])cc2)N2CCC(C)CC2)CC1 (configuration not stated),6.62
19,CC(=O)Oc1c(C(=O)c2nnc(C)o2)c(=O)n(Cc2ccccc2)c2ccccc12,6.98

row,SMILES,AC50 [µM]
1,COc1ccc(O)c(/C=N/NC(=O)c2ccc(CSc3nc(C)cc(C)n3)cc2)c1,9.31
2,Cc1ccc(NC(=O)C2CCN(S(=O)(=O)c3c(C)noc3/C=C/c3ccco3)CC2)nc1,5.56
3,CCC(=O)N1CCN(c2ccc(NC(=O)c3ccc([N+](=O)[O-])o3)cc2)CC1,8.69
4,COc1cc(CNC2CCCC2)cc(Cl)c1OCc1ccccc1Cl,17.7
5,Cc1nc2ccccn2c1C(=O)N/N=C/c1ccc([N+](=O)[O-])o1,8.03
6,COc1ccccc1C(=O)Nc1nc(-c2ccc(S(=O)(=O)N3CCOCC3)cc2)cs1,4.34
7,COc1ccccc1NS(=O)(=O)c1cc(NC(=O)c2ccc(Cl)nc2)ccc1Cl,11.3
8,O=C(O)CSCC(=O)Nc1ccc(C2CCCCC2)cc1,2.12
9,[2H]C(CCOS(N)(=O)=O)c1ccc(C(C)(C)C)cc1 (configuration not stated),0.487
10,CCc1ccc(N2C(=O)NC(=O)/C(=C\C=C\c3ccco3)C2=O)cc1,7.53
11,CC1CCCC(NCC(O)COC(c2ccc(F)cc2)c2ccc(F)cc2)C1C (configuration not stated),10.8
12,CC(C)(C)c1ccc(/C=N/Nc2ccc(C(=O)O)cc2)cc1,6.03
13,COc1cc(OC)cc(-c2oc(=O)c3cc(OC)c(OC)cc3c2C(F)(F)F)c1,12.8
14,CC(C)Oc1ccc(C(CCNCc2ccc(O)cc2)c2ccccc2)cc1 (configuration not stated),12.8
15,Cc1cccc(N2C(=O)NC(=O)/C(=C\c3cccn3-c3ccc(Cl)cc3)C2=O)c1,8.91
16,CC(=O)c1ccc(S(=O)(=O)N2CCN(C(=O)/C=C/c3ccc4ccccc4n3)CC2)cc1,12
17,O=C(N/N=C/c1ccc([N+](=O)[O-])s1)c1cccc(Br)c1,4.83
18,C=CCOc1ccc(/C=C2\SC(=S)N(CCC(=O)O)C2=O)cc1,0.337
19,CCCCNC(=O)Nc1ccc(C2SCCS2)cc1,35.3
